# Source: patent US8889677B2, “Substituted triazoles useful as mGlu5 receptor modulators” (Boehringer Ingellheim International GmbH, priority 2012, dated 2014)
# Target: T1, human recombinant mGluR5 (Homo sapiens, UniProt P41594)
# T1 construct: expressed in transfected cells; host or cells: HEK 293 cell line cultured with tetracycline, hygromycin and geneticin; tetracycline removed 3-7 days before the assay
# Assay: positive modulation of mGluR5, calcium based FLIPR assay in HEK 293 cells
# Settings: HEK 293 cell line expressing human recombinant mGluR5; EC50 of the modulation of the glutamate response (glutamate approx. 5% basal stimulation); peak height of Ca release fluorescence signal
# How it was run: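 HEK 293 cells expressing human mGluR5 (tetracycline-free medium 3-7 days before), loaded with Calcium-4 dye, in Ringer buffer pH 7.4, 1% DMSO. Compound pre-incubated 5 min, then glutamate at about 5% of maximal effect added; EC50 from peak Ca2+ fluorescence by nonlinear regression, scaled between DMSO (100%) and 10 μM CDPPB (200%) controls.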
# T1 sequence (P41594 21-1212): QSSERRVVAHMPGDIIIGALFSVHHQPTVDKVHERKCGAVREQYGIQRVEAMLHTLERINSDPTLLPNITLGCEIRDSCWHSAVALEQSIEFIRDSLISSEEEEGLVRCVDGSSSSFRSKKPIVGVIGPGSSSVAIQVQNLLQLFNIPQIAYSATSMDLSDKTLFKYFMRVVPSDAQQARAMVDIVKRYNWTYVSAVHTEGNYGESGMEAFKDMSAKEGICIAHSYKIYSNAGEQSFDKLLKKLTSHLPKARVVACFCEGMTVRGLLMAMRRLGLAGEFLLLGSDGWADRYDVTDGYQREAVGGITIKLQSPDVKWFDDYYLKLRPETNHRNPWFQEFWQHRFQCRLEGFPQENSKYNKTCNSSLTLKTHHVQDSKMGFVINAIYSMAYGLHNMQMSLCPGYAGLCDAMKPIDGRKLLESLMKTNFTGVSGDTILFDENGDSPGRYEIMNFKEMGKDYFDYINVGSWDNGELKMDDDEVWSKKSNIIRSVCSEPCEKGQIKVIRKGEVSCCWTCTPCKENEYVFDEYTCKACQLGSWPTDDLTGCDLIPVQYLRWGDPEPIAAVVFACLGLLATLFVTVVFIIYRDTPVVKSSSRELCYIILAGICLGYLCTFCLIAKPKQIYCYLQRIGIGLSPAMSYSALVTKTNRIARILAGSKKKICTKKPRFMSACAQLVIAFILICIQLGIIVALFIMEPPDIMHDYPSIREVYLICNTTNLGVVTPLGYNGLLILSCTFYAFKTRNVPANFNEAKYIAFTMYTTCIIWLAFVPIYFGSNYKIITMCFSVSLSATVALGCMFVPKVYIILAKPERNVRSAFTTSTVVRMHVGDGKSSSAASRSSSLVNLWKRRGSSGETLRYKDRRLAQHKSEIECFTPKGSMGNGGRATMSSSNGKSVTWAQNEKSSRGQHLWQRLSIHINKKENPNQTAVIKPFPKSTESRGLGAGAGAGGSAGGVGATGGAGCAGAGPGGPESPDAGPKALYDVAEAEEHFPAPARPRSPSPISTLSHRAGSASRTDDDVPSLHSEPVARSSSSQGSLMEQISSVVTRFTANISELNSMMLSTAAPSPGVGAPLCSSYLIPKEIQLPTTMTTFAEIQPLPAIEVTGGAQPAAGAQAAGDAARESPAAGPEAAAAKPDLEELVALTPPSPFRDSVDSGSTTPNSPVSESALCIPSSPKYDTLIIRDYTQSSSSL
row,SMILES,EC50 [µM]
1,CCCCCc1nc(-c2ccc(F)c(C)c2)nn1CC(=O)N1CCN(c2ccccn2)CC1 [Example 07.04.124.],0.125
2,COc1cccc(-c2nc(-c3ccccc3)n(CC(=O)N3CCN(c4ncccn4)CC3)n2)c1 [Example 07.10.10.],0.05
3,COc1cc(-c2nc(-c3ccc(F)cc3)nn2CC(=O)N2CCN(c3ncccn3)CC2)ccc1F [Example 07.04.077.],0.244
4,CCCc1nc(-c2ccc(F)c(C)c2)nn1CC(=O)N1CCN(c2cc(OC)ncn2)CC1 [Example 07.04.080.],0.771
5,CCC(C)c1nc(-c2ccc(F)c(C)c2)nn1CC(=O)N1CCN(c2cccnn2)CC1 (stereo not shown) [Example 07.04.104.],1.85
6,COCCOc1cc(N2CCN(C(=O)Cn3nc(-c4ccc(F)cc4)nc3-c3ccc(F)cc3)CC2)ncn1 [Example 07.06.03.],0.101
7,CCCCc1nc(-c2ccc(F)c(C)c2)nn1CC(=O)N1CCN(c2cc(OC)ccn2)CC1 [Example 07.04.118.],0.255
8,O=C(Cn1nc(-c2ccc(F)cc2)nc1-c1ccc(F)cc1)N1CCN(c2cc(OCCOCCOCCO)ncn2)CC1 [Example 07.09.16.],0.173
9,COc1ccc(-c2nc(-c3ccccc3)n(CC(=O)N3CCN(c4ncccn4)CC3)n2)cc1 [Example 07.10.02.],0.037
10,O=C(Cn1nc(-c2ccc(F)cc2)nc1-c1ccc(F)cc1)N1CCN(c2cc(OCCCO)ncn2)CC1 [Example 07.09.20.],0.065
11,O=C(Cn1nc(-c2ccc(F)cc2)nc1-c1ccc(F)cc1)N1CCN(c2cc(Br)ccn2)CC1 [Example 07.01.03.],0.08
12,CN1CCN(c2cc(N3CCN(C(=O)Cn4nc(-c5ccc(F)cc5)nc4-c4ccc(F)cc4)CC3)ncn2)CC1=O [Example 07.08.14.],0.822
13,COc1cc(N2CCN(C(=O)Cn3nc(-c4ccc(F)cc4)nc3-c3ccccc3)CC2)ncn1 [Example 07.10.32.],0.225
14,Cc1cc(-c2nc(C)n(CC(=O)N3CCN(c4ncccn4)CC3)n2)ccc1F [Example 07.04.097.],1.19
15,O=C(Cn1nc(-c2ccc(F)cc2)nc1-c1ccc(F)cc1)N1CCN(c2cc(OCc3cccnc3)ncn2)CC1 [Example 07.09.22.],0.039
16,COc1cccc(-c2nc(-c3ccc(F)cc3)nn2CC(=O)N2CCN(c3cc(C)ccn3)CC2)c1 [Example 07.04.025.],0.868
17,O=C(Cn1nc(-c2ccc(F)cc2)nc1-c1ccc(F)cc1)N1CCN(c2cc(O[C@H]3COC[C@H]3O)ncn2)CC1 [Example 07.09.15.],0.224
18,COc1nccc(N2CCN(C(=O)Cn3nc(-c4ccc(F)cc4)nc3-c3ccc(F)cc3)CC2)n1 [Example 07.03.19.],0.44
19,O=C(Cn1nc(-c2ccc(OC(F)F)cc2)nc1-c1ccccc1)N1CCN(c2ccccn2)CC1 [Example 7.04.164],0.022
20,COc1ccc(-c2nc(-c3ccc(OC)cc3)n(CC(=O)N3CCN(c4ncccn4)CC3)n2)cc1 [Example 07.02.09.],0.061
21,O=C(Cn1nc(-c2ccc(F)cc2)nc1-c1ccc(F)cc1)N1CCN(c2ccnc(F)c2)CC1 [Example 07.01.05.],0.399
22,COc1ccc(-c2nc(-c3ccc(F)cc3)n(CC(=O)N3CCN(c4cc(OC)ccn4)CC3)n2)cc1 [Example 07.04.039.],0.03
23,COC[C@H](C)Oc1cc(N2CCN(C(=O)Cn3nc(-c4ccc(F)cc4)nc3-c3ccc(F)cc3)CC2)ncn1 [Example 07.09.30.],0.075
24,O=C(Cn1nc(-c2ccccc2)nc1C1=CCCCC1)N1CCN(c2ncccn2)CC1 [Example 07.10.26.],0.543
25,O=C(Cn1nc(-c2ccc(F)cc2)nc1-c1ccc(F)cc1)N1CCN(c2cc(OC3CCCOC3)ncn2)CC1 (stereo not shown) [Example 07.09.09.],0.109
26,Cc1cc(-c2nc(C3CCCCC3)n(CC(=O)N3CCN(c4cccnn4)CC3)n2)ccc1F [Example 07.04.072.],0.257
27,COc1cc(N2CCN(C(=O)Cn3nc(-c4ccc(F)c(C)c4)nc3C(C)C)CC2)ncn1 [Example 07.04.086.],1.17
28,COc1ccnc(N2CCN(C(=O)Cn3nc(-c4ccc(F)c(C)c4)nc3C3CCCCC3C)CC2)c1 (stereo not shown) [Example 07.04.136.],1.22
